Several values for one entry are separate records, joined by “and”; a condition that tells them apart may be missing. Equal values may be shown once. Read-outs that look alike come from different tables or passages of the source.
Tests used:
MonoMac-1 cells = assay: IL-8 assay in MonoMac-1 cells (ELISA); type: cell-based, human; conditions: securinine 25 μM vs carrier/buffer control
[1] = tested on: C. burnetii (Phase II Nine Mile strain); type: cell-based; conditions: 96 hours
[2] = tested on: C. burnetii (Phase II Nine Mile strain); type: cell-based; conditions: 96 hours; remark: listed apart in the source
Phase II C. burnetii [3] = type: cell-based; conditions: 96 hours
TLR-1 to 10 = assay: TLR activation assay (THP1-Blue-CD14/SEAP); type: cell-based; conditions: securinine 50 or 25 μM, 24 hours
Phase II C. burnetii [4] = type: in vivo
cathepsin D = type: cell-based, mouse
C. burnetii = conditions: 24 hours
p38 map kinase = assay: p38 MAP kinase Western blot in Monomac-1 cells; type: cell-based, human; conditions: 50 μM securinine
host macrophages = conditions: 24 hours
[5] = concentrations as high as 10 mg/kg or greater i.p.; cited from earlier work
peritoneal cells = assay: Analysis of peritoneal cells after i.p. injection (FACS); type: in vivo, Balb/c mice; conditions: peritoneum, data not shown

Compound: O=C1C=C2C=C[C@@H]3C[C@@]2(O1)[C@H]1CCCCN31 [securinine]
- IL-8 secretion (MonoMac-1 cells): potent inducer of IL-8 secretion
- C. burnetii killing [1]: induced killing of C. burnetii
- C. burnetii killing [2]: induced killing of C. burnetii
- percent C. burnetii killing (Phase II C. burnetii [3]): > 80%
- TLR-1 to 10 signaling (SEAP release) (TLR-1 to 10): not detected
- C. burnetii burden (viable bacterial counts) (Phase II C. burnetii [4]; 96 hr): significantly (P value <0.05) lower
- spleen weights (Phase II C. burnetii [4]; 96 hr): significantly (P value <0.05) lower
- reduction in C. burnetii, PCR assay for bacterial DNA (Phase II C. burnetii [4]; in vivo, ip): 10 fold
- reduction in C. burnetii, viability assay (Phase II C. burnetii [4]; in vivo, ip): 10 fold
- cathepsin D expression in infected macrophages (cathepsin D): induced cathepsin D expression
- direct killing of C. burnetii (C. burnetii): Neither of the compounds, at concentrations that induced killing in vitro and in vivo, induced direct killing
- p38Map kinase activity (phospho-p38) (p38 map kinase): induces p38Map kinase activity
- direct killing of host cells (host macrophages): Neither of the compounds, at concentrations that induced killing in vitro and in vivo, induced direct killing
- toxicity [5]: without any obvious toxicity

Compound: Pam3CGDPKHPKSF [FSL-1]
- C. burnetii content of infected cells [1]: less C. burnetii
- neutrophil and macrophage activation: CD11b and Ly6C expression (peritoneal cells): increased
- bacterial burden by PCR, lower than buffer alone (Phase II C. burnetii [4]; in vivo): > 10 fold
- bacterial counts by PCR (Phase II C. burnetii [4]; in vivo): reduced bacterial counts
- efficiency in inducing enhanced C. burnetii clearance, share of animals (Phase II C. burnetii [4]; in vivo): 61% and 100%
- mice showing a reduction of C. burnetii (Phase II C. burnetii [4]; in vivo): 11 mice
- mice with lower spleen weight and bacterial burden (Phase II C. burnetii [4]; in vivo): 5 out of 5
- spleen weight (Phase II C. burnetii [4]; in vivo): significantly lower
- splenomegaly (spleen weight) (Phase II C. burnetii [4]; in vivo): reduced the splenomegaly
- total C. burnetii DNA from spleen and liver (Phase II C. burnetii [4]; in vivo): lower
- viable bacterial counts in the spleen (bacLight FACS assay) (Phase II C. burnetii [4]; in vivo): enhanced clearance of C. burnetii
- spleen C. burnetii numbers (PCR quantification of bacterial DNA) (Phase II C. burnetii [4]; in vivo, ip): reduced
- direct killing of C. burnetii (C. burnetii): Neither of the compounds, at concentrations that induced killing in vitro and in vivo, induced direct killing
- direct killing of host cells (host macrophages): Neither of the compounds, at concentrations that induced killing in vitro and in vivo, induced direct killing

Compound: lipopolysaccharide [LPS]
- C. burnetii content of infected cells [1]: less C. burnetii
- neutrophil and macrophage activation: CD11b and Ly6C expression (peritoneal cells): increased
- benefit on C. burnetii infection in vivo (Phase II C. burnetii [4]; in vivo): No benefit
- spleen C. burnetii numbers (PCR quantification of bacterial DNA) (Phase II C. burnetii [4]; in vivo, ip): did not have an effect

Source: patent publication US20130196900A1, “ENHANCEMENT OF INNATE RESISTANCE TO INFECTION” (priority 2007, published 2013)
